Reference: patent publication US20230303557A1, “CRYSTALLINE FORM OF TLR8 AGONIST” (CHIA TAI TIANQING PHARMACEUTICAL GROUP CO., LTD., priority 2020, published 2023)
Where a name gives a salt, the structure may show the parent alone.

Key:
[1] = Accelerated stability testing (40±2° C./75±5% RH); format: physicochemical
Procedure: Inner packaging: a double-layer medical low-density polyethylene bag; outer packaging: an aluminum foil bag.
Test conditions: 40±2° C./75±5% RH.

[2] = Photostability testing; format: physicochemical; settings: for Appearance / Content / Enantiomer / Total impurity content / Water: photostability
Description: 1) Photostability Testing
Two test samples (one as a 5-day test sample, the other as a 10-day test sample) and two controls (one as a 5-day control, the other as a 10-day control) were used. The test samples were spread as thin layers on clean watch glasses and covered with quartz glass covers. The controls were packaged in the same manner as the test samples except that the watch glasses were covered with aluminum film.
Test conditions: a photostability tester.

[3] = High-temperature (60° C.) stability testing; format: physicochemical
Procedure: 2) Testing for the Effect of Temperature
Each sample was placed on an open watch glass and tested under high-temperature conditions (60° C.).

[4] = High-humidity (25° C./92.5 RH) stability testing; format: physicochemical; settings: for Appearance / Content / Enantiomer / Total impurity content / Water: 25° C./92.5RH
Procedure: 3) Testing for the Effect of Humidity
Each sample was placed in an open low-form weighing bottle and tested under high-humidity conditions (25° C./92.5 RH).

[5] = Pharmacokinetic study in mice; format: in vivo; settings: mouse, plasma
Procedure: Experimental Example 3: Pharmacokinetic Study in Mice
This experiment was intended to evaluate the pharmacokinetic behavior of the compound after a single intravenous injection or intragastric administration in mice.
The concentration of the test compound in plasma was determined by high performance liquid chromatography-tandem mass spectrometry (LC-MS/MS). The retention times of the compound and internal standard, chromatogram acquisitions and integrals of chromatograms were processed using the software Analyst (Applied Biosystems), and the data statistics were processed using the software Watson LIMS (Thermo Fisher Scientific) or Analyst (Applied Biosystems).
The plasma concentrations were processed using a non-compartmental model of WinNonlin™ Version 6.3 (Pharsight, Mountain View, CA), a pharmacokinetic software, and the pharmacokinetic parameters were calculated using a linear-log trapezoidal method.
The related pharmacokinetic parameters in the mice at 1 mg/Kg intravenous injection and 5 mg/Kg oral intragastric administration of the hydrochloride of the compound of formula (I) are shown in Table 4 below.

[6] = molecular target: human TLR7 (Homo sapiens (Human), UniProt Q9NYK1); assay: HEK-Blue hTLR7 SEAP reporter agonist assay; format: cell-based; settings: HEK-Blue hTLR7 cells, 24 hours, SEAP OD650
Chain of human TLR7 (Q9NYK1 27-1049): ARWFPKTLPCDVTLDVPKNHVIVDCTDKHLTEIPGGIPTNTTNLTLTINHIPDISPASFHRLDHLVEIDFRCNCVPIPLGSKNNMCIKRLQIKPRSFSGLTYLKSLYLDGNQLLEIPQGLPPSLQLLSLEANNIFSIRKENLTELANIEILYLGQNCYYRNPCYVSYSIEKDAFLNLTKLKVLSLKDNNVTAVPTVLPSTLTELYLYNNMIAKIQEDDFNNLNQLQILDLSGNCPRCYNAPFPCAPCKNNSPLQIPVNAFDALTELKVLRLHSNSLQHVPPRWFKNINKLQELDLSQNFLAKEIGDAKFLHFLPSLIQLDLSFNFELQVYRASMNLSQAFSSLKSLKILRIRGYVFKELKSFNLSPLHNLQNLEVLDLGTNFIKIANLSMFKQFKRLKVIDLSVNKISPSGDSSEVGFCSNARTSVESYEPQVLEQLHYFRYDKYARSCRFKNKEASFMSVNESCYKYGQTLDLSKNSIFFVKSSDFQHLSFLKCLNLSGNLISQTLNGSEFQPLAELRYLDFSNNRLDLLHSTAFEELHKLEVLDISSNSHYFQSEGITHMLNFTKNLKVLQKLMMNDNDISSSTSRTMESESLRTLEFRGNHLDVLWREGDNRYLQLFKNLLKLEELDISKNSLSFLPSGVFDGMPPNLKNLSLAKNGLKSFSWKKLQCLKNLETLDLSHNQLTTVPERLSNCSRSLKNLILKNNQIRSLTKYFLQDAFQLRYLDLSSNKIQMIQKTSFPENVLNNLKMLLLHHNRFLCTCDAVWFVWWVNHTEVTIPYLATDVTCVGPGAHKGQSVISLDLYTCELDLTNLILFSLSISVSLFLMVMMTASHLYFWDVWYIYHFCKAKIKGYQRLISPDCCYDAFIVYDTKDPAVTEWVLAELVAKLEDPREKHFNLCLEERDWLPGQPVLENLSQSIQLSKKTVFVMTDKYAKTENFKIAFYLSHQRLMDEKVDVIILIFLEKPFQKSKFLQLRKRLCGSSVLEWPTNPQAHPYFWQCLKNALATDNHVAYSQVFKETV
Description: (§1) Experimental Example 1: Screening for In Vitro Receptor Binding Activity of Human Toll-Like Receptor 7 (TLR7) and Human Toll-Like Receptor 8 (TLR8)
(§2) The HEK-Blue™ hTLR7 (catalog No.: hkb-htlr7) and HEK-Blue™ hTLR8 (catalog No.: hkb-htlr8) cell lines used in this experiment were purchased from InvivoGen. The two cell lines were constructed by a human embryonic kidney 293 cell line stably co-transfecting hTLR7 or hTLR8 and inducing expression of Secreted Alkaline Phosphatase (SEAP) reporter gene, wherein SEAP reporter gene was regulated by an IFN-β promoter. […]
(§3) 2. […] The cells were counted and the cell suspension was adjusted to 500,000 cells/mL with the culture medium. […]
(§4) 4. Activity assay on the compound: 20 µL of the induced cell supernatant from each well was added to a cell culture plate containing 180 µL of QUANTI-Blue™ reagent, and after incubation at 37° C. for 1 hour, the optical density absorbance at 650 nm (OD650) was assayed for each well using a multi-functional microplate reader.
(§5) 5. Activity assay on the cells: luciferase signal (RLU) was detected using a multi-functional microplate reader as per the process described in the instructions of ATPlite 1 Step.
(§6) 6. Data analysis: compound activity: OD650 values were analyzed using a GraphPad Prism software and the dose-response curves of the compound were fitted to calculate EC50 values (half maximal effect concentration) for the compound.

[7] = molecular target: human TLR8 (Homo sapiens (Human), UniProt Q9NR97); assay: HEK-Blue hTLR8 SEAP reporter agonist assay; format: cell-based; settings: HEK-Blue hTLR8 cells, 24 hours, SEAP OD650
Chain of human TLR8 (Q9NR97 27-1041): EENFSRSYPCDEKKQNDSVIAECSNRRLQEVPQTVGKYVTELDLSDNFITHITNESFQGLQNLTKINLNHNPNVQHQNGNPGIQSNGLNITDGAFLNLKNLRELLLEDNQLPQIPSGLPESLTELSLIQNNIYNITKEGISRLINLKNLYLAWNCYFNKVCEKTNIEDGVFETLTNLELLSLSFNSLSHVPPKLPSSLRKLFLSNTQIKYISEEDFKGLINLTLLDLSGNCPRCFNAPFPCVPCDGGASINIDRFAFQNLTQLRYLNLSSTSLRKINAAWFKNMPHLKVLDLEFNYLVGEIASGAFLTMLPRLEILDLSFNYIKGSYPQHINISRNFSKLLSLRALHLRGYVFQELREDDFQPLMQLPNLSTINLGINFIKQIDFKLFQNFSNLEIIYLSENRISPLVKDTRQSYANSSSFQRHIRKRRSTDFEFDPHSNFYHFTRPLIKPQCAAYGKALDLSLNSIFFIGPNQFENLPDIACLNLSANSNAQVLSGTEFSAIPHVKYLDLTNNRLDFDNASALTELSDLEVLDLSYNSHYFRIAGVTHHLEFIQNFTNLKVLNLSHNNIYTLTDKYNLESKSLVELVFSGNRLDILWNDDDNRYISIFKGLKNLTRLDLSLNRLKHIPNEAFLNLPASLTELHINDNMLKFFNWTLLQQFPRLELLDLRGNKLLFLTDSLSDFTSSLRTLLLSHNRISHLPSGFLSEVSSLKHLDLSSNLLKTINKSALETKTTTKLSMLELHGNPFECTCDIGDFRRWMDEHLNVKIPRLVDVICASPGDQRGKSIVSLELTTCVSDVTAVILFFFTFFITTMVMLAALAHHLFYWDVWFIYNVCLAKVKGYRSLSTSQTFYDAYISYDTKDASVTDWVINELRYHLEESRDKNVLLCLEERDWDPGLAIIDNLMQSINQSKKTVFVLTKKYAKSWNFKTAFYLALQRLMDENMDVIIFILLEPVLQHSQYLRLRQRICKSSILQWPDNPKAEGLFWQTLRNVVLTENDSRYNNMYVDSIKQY
Description: as §1, §2, §3, §4, §5, §6

[8] = Day 5, control group (aluminum film)
[9] = Day 10, control group (aluminum film)
[10] = oral intragastric administration 5 mg/Kg

In the case of `CCCC[C@](C)(Cc1ncn[nH]1)Nc1nc(N)nc2cnccc12`, the Appearance ([1]; Month 1) is reported as “Off-white powder”, the Content ([1]; Month 1) is reported as 98.9% and the Total impurity content ([1]; Month 1) is reported as less than 0.05%. The Water ([1]; Month 1) was 0.30%, the Appearance ([1]; Month 2) was “Off-white powder” and the Content ([1]; Month 2) was 99.5%. For the same compound, the Total impurity content ([1]; Month 2) was less than 0.05%, the Water ([1]; Month 2) was 0.31% and the Appearance ([1]; Month 3) was “Off-white powder”. For the same compound, the Content ([1]; Month 3) was 98.8%, the Enantiomer ([1]; Month 3) was 0.32% and the “Stability under accelerated conditions (conclusion, XRPD)” value ([1]; Month 3) was “stays stable under accelerated conditions”. For the same compound, the Total impurity content ([1]; Month 3) was less than 0.05%, the Water ([1]; Month 3) was 0.28% and the XRPD ([1]; Month 3) was “Crystal form A”. For the same compound, the Appearance ([1]; Month 6) was “Off-white powder”, the Content ([1]; Month 6) was 99.3% and the Enantiomer ([1]; Month 6) was 0.34%. The Total impurity content ([1]; Month 6) was less than 0.05%, the Water ([1]; Month 6) was 0.34% and the Appearance ([1]; initial value) was “Off-white powder”. It also gave a Content ([1]; initial value) of 98.3%, an Enantiomer ([1]; initial value) of 0.34% and a Total impurity content ([1]; initial value) of less than 0.05%. For the same compound, the Water ([1]; initial value) was 0.19%, the XRPD ([1]; initial value) was “Crystal form A” and the “Photostability (conclusion)” value ([2]; lighting conditions, 5-day and 10-day) was “good photostability”. For the same compound, the Appearance [2, 8] was “Off-white powder”, the Content [2, 8] was 98.7% and the Enantiomer [2, 8] was 0.35%. The Total impurity content [2, 8] was less than 0.05%, the Water [2, 8] was 0.25% and the Appearance ([2]; Day 5, test group) was “Off-white powder”. The Content ([2]; Day 5, test group) was 98.8%, the Enantiomer ([2]; Day 5, test group) was 0.34% and the Total impurity content ([2]; Day 5, test group) was less than 0.05%. For the same compound, the Water ([2]; Day 5, test group) was 0.24%, the Appearance [2, 9] was “Off-white powder” and the Content [2, 9] was 99.1%. The Enantiomer [2, 9] was 0.36%, the Total impurity content [2, 9] was less than 0.05% and the Water [2, 9] was 0.25%. For the same compound, the Appearance ([2]; Day 10, test group) was “Off-white powder”, the Content ([2]; Day 10, test group) was 98.6% and the Enantiomer ([2]; Day 10, test group) was 0.34%. The Total impurity content ([2]; Day 10, test group) was less than 0.05%, the Water ([2]; Day 10, test group) was 0.25% and the Appearance ([2]; initial value) was “Off-white powder”. It also gave a Content ([2]; initial value) of 98.3%, an Enantiomer ([2]; initial value) of 0.34% and a Total impurity content ([2]; initial value) of less than 0.05%. The Water ([2]; initial value) was 0.19%, the “High-temperature stability (conclusion)” value ([3]; 5-day, 10-day and 30-day) was “good high-temperature stability” and the Appearance ([3]; Day 5) was “Off-white powder”. It also gave a Content ([3]; Day 5) of 99.1%, an Enantiomer ([3]; Day 5) of 0.35% and a Total impurity content ([3]; Day 5) of less than 0.05%. The Water ([3]; Day 5) was 0.25%, the Appearance ([3]; Day 10) was “Off-white powder” and the Content ([3]; Day 10) was 99.0%. It also gave an Enantiomer ([3]; Day 10) of 0.37%, a Total impurity content ([3]; Day 10) of less than 0.05% and a Water ([3]; Day 10) of 0.24%. For the same compound, the Appearance ([3]; Day 30) was “Off-white powder”, the Content ([3]; Day 30) was 98.2% and the Enantiomer ([3]; Day 30) was 0.34%. For the same compound, the Total impurity content ([3]; Day 30) was less than 0.05%, the Water ([3]; Day 30) was 0.26% and the Appearance ([3]; initial value) was “Off-white powder”. For the same compound, the Content ([3]; initial value) was 98.3%, the Enantiomer ([3]; initial value) was 0.34% and the Total impurity content ([3]; initial value) was less than 0.05%. For the same compound, the Water ([3]; initial value) was 0.19%, the “High-humidity stability (conclusion)” value ([4]; 25° C./92.5 RH, 5-day, 10-day and 30-day) was “good high-humidity stability” and the Appearance ([4]; Day 5) was “Off-white powder”. It also gave a Content ([4]; Day 5) of 98.8%, an Enantiomer ([4]; Day 5) of 0.35% and a Total impurity content ([4]; Day 5) of less than 0.05%. For the same compound, the Water ([4]; Day 5) was 0.29%, the Appearance ([4]; Day 10) was “Off-white powder” and the Content ([4]; Day 10) was 99.4%. The Enantiomer ([4]; Day 10) was 0.35%, the Total impurity content ([4]; Day 10) was less than 0.05% and the Water ([4]; Day 10) was 0.29%. The Appearance ([4]; Day 30) was “Off-white powder”, the Content ([4]; Day 30) was 98.7% and the Enantiomer ([4]; Day 30) was 0.35%. For the same compound, the Total impurity content ([4]; Day 30) was less than 0.05%, the Water ([4]; Day 30) was 0.30% and the Appearance ([4]; initial value) was “Off-white powder”. The Content ([4]; initial value) was 98.3%, the Enantiomer ([4]; initial value) was 0.34% and the Total impurity content ([4]; initial value) was less than 0.05%. For the same compound, the Water ([4]; initial value) was 0.19%.

`CCCC[C@](C)(Cc1ncn[nH]1)Nc1nc(N)nc2cnccc12` [Hydrochloride of compound of formula (I)] gave a bioavailability ([5]; 5 mg/Kg oral vs 1 mg/Kg intravenous, read-out: Bioavailability (F%)) of 27.7%, an AUC(0-t) ([5]; intravenous injection 1 mg/Kg) of 0.45 µM·h and a clearance ([5]; intravenous injection 1 mg/Kg) of 90.2 mL/min/kg. It also gave a Vd ([5]; intravenous injection 1 mg/Kg, read-out: Vdss) of 1.75 L/kg, a half-life ([5]; intravenous injection 1 mg/Kg, read-out: t½ (converted)) of 15 min and an AUC(0-t) [5, 10] of 0.624 µM·h. The Cmax [5, 10] was 421 nM, the Tmax [5, 10] was 30 min and the EC50 [6] was 33.3 µM. It also gave an EC50 [7] of 0.003 µM.
